In US20210395313A1, “PEPTIDE PAC1 ANTAGONISTS” (AMGEN INC., priority 2017, published 2021):
Where a SMILES comes first, the peptide text is derived from it. Bridges are numbered along the chain shown (N, C = ends). Where no end group is shown, it is not given here.

Biological target: T1, rat PAC1 receptor (Rattus norvegicus, UniProt P32215)
T1 construct: SHSY-5Y (human neuroblastoma cell line) and RG-2 (rat glioma cell line) cells endogenously express human and rat PAC1 receptors, respectively; endogenous in cells; host or cells: RG-2 rat glioma cells
T1 sequence (P32215 20-523): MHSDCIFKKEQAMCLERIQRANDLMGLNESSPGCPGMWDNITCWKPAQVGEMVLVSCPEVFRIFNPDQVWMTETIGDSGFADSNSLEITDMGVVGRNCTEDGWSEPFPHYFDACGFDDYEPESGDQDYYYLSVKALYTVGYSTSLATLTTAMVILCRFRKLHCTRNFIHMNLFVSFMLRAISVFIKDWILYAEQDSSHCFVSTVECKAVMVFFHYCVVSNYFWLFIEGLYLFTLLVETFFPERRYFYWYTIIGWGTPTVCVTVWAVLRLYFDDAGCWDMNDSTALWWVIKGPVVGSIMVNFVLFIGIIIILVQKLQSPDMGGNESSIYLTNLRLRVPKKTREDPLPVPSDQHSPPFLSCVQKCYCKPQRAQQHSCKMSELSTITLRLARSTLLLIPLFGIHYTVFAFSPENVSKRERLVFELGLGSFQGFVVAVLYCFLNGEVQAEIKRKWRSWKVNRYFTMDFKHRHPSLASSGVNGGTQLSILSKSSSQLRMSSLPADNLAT
Experiment: LANCE Ultra cAMP accumulation antagonist assay in RG-2 cells;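 further: RG-2 rat glioma cells endogenously expressing PAC1, test peptide preincubated 30 min, then PAC1 agonist added at its EC80 for 15 min, cAMP accumulation read by LANCE Ultra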
Assay type: cell-based

Compound	IC50 [nM]
CDATCQFRKAIDDCQKQAHHSNVPGSVFKACMKQKKKEFKAGA (disulfide 1-5, 14-31) [compound 175]	0.01 to 1
CSCC[C@H](NC(=O)[C@H](C)NC(=O)[C@@H](NC(=O)[C@H](CCCCN)NC(=O)[C@H](CCCCN)NC(=O)[C@H](Cc1ccc(O)cc1)NC(=O)[C@H](CC(C)C)NC(=O)[C@H](CO)NC(=O)[C@H](C)NC(=O)[C@@H](NC(=O)[C@H](CC(C)C)NC(=O)CNC(=O)[C@H](CCCCN)NC(=O)[C@H](CCCNC(=N)N)NC(=O)[C@H](Cc1ccc(O)cc1)NC(=O)[C@H](CCC(N)=O)NC(=O)[C@@H]1CSSC[C@H](N)C(=O)N[C@@H](CC(=O)O)C(=O)N[C@@H](C)C(=O)N[C@@H]([C@@H](C)O)C(=O)N1)C(C)C)C(C)C)C(=O)N[C@@H](CCC(N)=O)C(=O)N[C@@H](CCCCN)C(=O)N[C@@H](CCCNC(=N)N)C(=O)N[C@@H](Cc1ccc(O)cc1)C(N)=O [compound 437] (H-CDATCQYRKGLVASLYKKVAMQKRY-NH2; disulfide 1-5)	> 100
CC[C@H](C)[C@H](NC(=O)[C@H](C)NC(=O)[C@H](CCCCN)NC(=O)[C@H](CCCNC(=N)N)NC(=O)[C@H](Cc1ccccc1)NC(=O)[C@H](CCC(N)=O)NC(=O)[C@@H]1CSSC[C@H](N)C(=O)N[C@@H](CC(=O)O)C(=O)N[C@@H](C)C(=O)N[C@@H]([C@@H](C)O)C(=O)N1)C(=O)N[C@@H](CC(=O)O)C(=O)N[C@@H](CC(=O)O)C(=O)N[C@H]1CSSC[C@@H](C(=O)N[C@@H](CCSC)C(=O)N[C@@H](CCCCN)C(=O)N[C@@H](CCC(N)=O)C(=O)N[C@@H](CCCCN)C(=O)N[C@@H](CCCCN)C(=O)N[C@@H](CCCCN)C(=O)N[C@@H](CCC(=O)O)C(=O)N[C@@H](Cc2c[nH]c3ccccc23)C(=O)N[C@@H](CCCCN)C(=O)N[C@@H](C)C(=O)NCC(N)=O)NC(=O)[C@H](CO)NC(=O)[C@H](CCCCN)NC(=O)[C@H](Cc2ccccc2)NC(=O)[C@H](C(C)C)NC(=O)[C@H](CO)NC(=O)[C@H](CO)NC(=O)[C@H](Cc2c[nH]cn2)NC(=O)[C@H](Cc2ccc(O)cc2)NC(=O)[C@H](C)NC(=O)[C@H](CCC(N)=O)NC(=O)[C@H](CCCNC(=N)N)NC(=O)[C@H](C)NC1=O [compound 430] (H-CDATCQFRKAIDDCARQAYHSSVFKSCMKQKKKEWKAG-NH2; disulfide 1-5, 14-27)	< 0.01
CDATCQFRKAIDDCQKQAHHSNVPGSVFKACMKQKKKEFKAGR (disulfide 1-5, 14-31) [compound 170]	0.01 to 1
CDATCQFRKAIDDCQKQAHHSNVPGSVFKACMKQKKKEFKAGE (disulfide 1-5, 14-31) [compound 173]	0.01 to 1
CDATCQFRKAIDDCQKQAHHSNVPGSVFKACMKQKKKEFKAN (disulfide 1-5, 14-31) [compound 202]	0.01 to 1
CDATCQFRKAIDDCAGTARHSNVPGSVFKACMKQKKKEWKAG-NH2 (disulfide 1-5, 14-31) [compound 446]	1 to 100
CDATCQFRKCIDDWQKQAHHSNVPGSVFKARMKQCKKEFKAG-NH2 (disulfide 1-5, 10-35) [compound 176]	1 to 100
CDATCQFRKAIDDCQKQAHHSNVPGSVFKACMKQKKKEFKAGK (disulfide 1-5, 14-31) [compound 182]	0.01 to 1
CC[C@H](C)[C@H](NC(=O)[C@H](C)NC(=O)[C@H](CCCCN)NC(=O)[C@H](CCCNC(=N)N)NC(=O)[C@H](Cc1ccccc1)NC(=O)[C@H](CCC(N)=O)NC(=O)[C@@H]1CSSC[C@H](N)C(=O)N[C@@H](CC(=O)O)C(=O)N[C@@H](C)C(=O)N[C@@H]([C@@H](C)O)C(=O)N1)C(=O)N[C@@H](CC(=O)O)C(=O)N[C@@H](CC(=O)O)C(=O)N[C@H]1CSSC[C@@H](C(=O)N[C@@H](CCSC)C(=O)N[C@@H](CCCCN)C(=O)N[C@@H](CCC(N)=O)C(=O)N[C@@H](CCCCN)C(=O)N[C@@H](CCCCN)C(=O)N[C@@H](CCCCN)C(=O)N[C@@H](CCC(=O)O)C(=O)N[C@@H](Cc2c[nH]c3ccccc23)C(=O)N[C@@H](CCCCN)C(=O)N[C@@H](C)C(=O)NCC(=O)N[C@@H](Cc2c[nH]cn2)C(=O)O)NC(=O)[C@H](C)NC(=O)[C@H](CCCCN)NC(=O)[C@H](Cc2ccccc2)NC(=O)[C@H](CCC(N)=O)NC(=O)[C@H](CCCNC(=N)N)NC(=O)[C@H](C)NC1=O [compound 447] (H-CDATCQFRKAIDDCARQFKACMKQKKKEWKAGH-OH; disulfide 1-5, 14-21)	0.01 to 1
CDATCQFRKAIDDCANKSWHSNVPGSVFKLCMKQKKKEWKAGH-NH2 (disulfide 1-5, 14-31) [compound 445]	> 100
CDATCQFRKAIDDCQKQAHHSNVPGSVFKSCMKQKKKEFKAG-NH2 (disulfide 1-5, 14-31) [compound 207]	0.01 to 1
CC[C@H](C)[C@H](NC(=O)[C@H](C)NC(=O)[C@H](CCCCN)NC(=O)[C@H](CCCNC(=N)N)NC(=O)[C@H](Cc1ccccc1)NC(=O)[C@H](CCC(N)=O)NC(=O)[C@@H]1CSSC[C@H](N)C(=O)N[C@@H](CC(=O)O)C(=O)N[C@@H](C)C(=O)N[C@@H]([C@@H](C)O)C(=O)N1)C(=O)N[C@@H](CC(=O)O)C(=O)N[C@@H](CC(=O)O)C(=O)N[C@H]1CSSC[C@@H](C(=O)N[C@@H](CCSC)C(=O)N[C@@H](CCCCN)C(=O)N[C@@H](CCC(N)=O)C(=O)N[C@@H](CCCCN)C(=O)N[C@@H](CCCCN)C(=O)N[C@@H](CCCCN)C(=O)N[C@@H](CCC(=O)O)C(=O)N[C@@H](Cc2c[nH]c3ccccc23)C(=O)N[C@@H](CCCCN)C(=O)N[C@@H](C)C(=O)NCC(=O)N[C@@H](Cc2c[nH]cn2)C(=O)O)NC(=O)[C@H](C)NC(=O)[C@H](CO)NC(=O)[C@H](Cc2c[nH]cn2)NC(=O)[C@H](Cc2ccc(O)cc2)NC(=O)[C@H](C)NC(=O)[C@H](CCC(N)=O)NC(=O)[C@H](CCCNC(=N)N)NC(=O)[C@H](C)NC1=O [compound 449] (H-CDATCQFRKAIDDCARQAYHSACMKQKKKEWKAGH-OH; disulfide 1-5, 14-23)	1 to 100
CC[C@H](C)[C@H](NC(=O)[C@H](C)NC(=O)[C@H](CCCCN)NC(=O)[C@H](CCCNC(=N)N)NC(=O)[C@H](Cc1ccccc1)NC(=O)[C@H](CCC(N)=O)NC(=O)[C@@H]1CSSC[C@H](N)C(=O)N[C@@H](CC(=O)O)C(=O)N[C@@H](C)C(=O)N[C@@H]([C@@H](C)O)C(=O)N1)C(=O)N[C@@H](CC(=O)O)C(=O)N[C@@H](CC(=O)O)C(=O)N[C@H]1CSSC[C@@H](C(=O)N[C@@H](CCSC)C(=O)N[C@@H](CCCCN)C(=O)N[C@@H](CCC(N)=O)C(=O)N[C@@H](CCCCN)C(=O)N[C@@H](CCCCN)C(=O)N[C@@H](CCCCN)C(=O)N[C@@H](CCC(=O)O)C(=O)N[C@@H](Cc2c[nH]c3ccccc23)C(=O)N[C@@H](CCCCN)C(=O)N[C@@H](C)C(=O)NCC(N)=O)NC(=O)[C@H](C)NC(=O)[C@H](CCCCN)NC(=O)[C@H](Cc2ccccc2)NC(=O)[C@H](C(C)C)NC(=O)[C@H](CO)NC(=O)[C@H](CO)NC(=O)[C@H](Cc2c[nH]cn2)NC(=O)[C@H](CO)NC(=O)[C@H](C)NC(=O)[C@H](CCC(N)=O)NC(=O)[C@H](CCCNC(=N)N)NC(=O)[C@H](C)NC1=O [compound 433] (H-CDATCQFRKAIDDCARQASHSSVFKACMKQKKKEWKAG-NH2; disulfide 1-5, 14-27)	< 0.01
